Reference: patent US20250144131A1, “POLYSACCHARIDE COMPOUND WITH A DEFINED MOLECULAR STRUCTURE FOR THE TREATMENT OF PULMONARY FIBROSIS” (SHENZHEN YANDAI INVESTMENT CO., LTD, priority 2023, published 2025)
Marks after values point to notes of the source that are not given here.

Assays:
LLC tumors [1] = assay: Antitumor effect in LLC-bearing mice (tumor volume, relative tumor volume, T/C, tumor coefficient, tumor growth inhibition rate); type: in vivo, C57 mice
From the text: Tumor volume measurement: […] Relative tumor volume (RTV)=TVt/TV0, where TV0 is the tumor volume at the time of administration, and TVt is the tumor volume at each measurement. Relative tumor growth rate T/C (%)=TRTV/CRTV×100%, where TRTV is the RTV for the treatment group and CRTV is the RTV for the control group. Tumor growth inhibition rate (%)=(model control group tumor weight−treatment group tumor weight)/model control group tumor weight×100%.

[2] = tested on: CD4+ and CD8+ lymphocyte subtypes; assay: Blood CD3+/CD4+ and CD3+/CD8+ by flow cytometry in LLC-bearing mice; type: in vivo, C57 mice; conditions: blood after last dose, cisplatin 4, Kanglaite 1404, GLP-4 low-dose 130 mg/kg
Protocol: LLC cells in logarithmic growth phase at 1×10^7/mL were inoculated at 0.2 mL into the right axilla of 10 purchased normal male C57 mice. Tumor growth was monitored, and tumor-bearing mice were prepared. Once the tumor volume in tumor-bearing mice exceeded 200 mm^3, the tumor tissue was aseptically harvested to prepare a tissue cell suspension. This was mixed at a 1:1 (V:V) ratio with culture medium to create a tumor tissue homogenate. This homogenate was injected into the right axilla of 60 male C57 mice at 0.2 mL per mouse. When the tumor volume in these tumor-bearing mice exceeded 100 mm^3, mice with well-grown tumors without ulceration were selected and randomized into groups based on tumor volume as follows: model control group, cisplatin group (4 mg/kg), Kanglaite soft capsule group (1,404 mg/kg), cisplatin+Kanglaite soft capsule group (4+1,404 mg/kg), cisplatin+GLP-4 low-dose group (4+130 mg/kg), and cisplatin+GLP-4 high-dose group (4+1,170 mg/kg), with 8 mice per group. Additionally, 8 mice were selected as a normal control group. The cisplatin group received intraperitoneal injections of cisplatin, and the other groups were administered their respective drug solutions by gavage (20 mL/kg) or intraperitoneal injection (10 mL/kg), once daily for 27 consecutive days. […]

LLC tumors [3] = assay: Histopathology (H&E) of tumor, spleen, stomach and kidney in LLC-bearing mice; type: in vivo, C57 mice; conditions: cisplatin 4, Kanglaite 1404, GLP-4 low-dose 130 mg/kg
From the text: Histopathology examination: After the last dose, tissues from tumors, spleens, stomachs, and kidneys were collected for H&E staining to observe histopathological changes.

[4] = Mortality, survival time and body weight of H22-bearing mice; type: in vivo, C57 mice
Protocol: A homogenate suspension of H22 hepatoma solid tumors was injected subcutaneously under the axilla of 60 healthy male C57 mice to create a solid tumor model. Once all mouse tumors averaged a volume of about 180 mm^3, mice were randomized into groups based on tumor volume and were administered the respective drugs or drug solvents via oral gavage or intraperitoneal injection for 27 consecutive days. Longest and shortest diameters of tumors were measured every three days to calculate tumor volume, and mouse weights were recorded every three days. At the end of the experiment, tumors, spleens, and thymuses were harvested and weighed to calculate tumor, spleen, and thymus indices.

H22 cells = assay: Necrosis and apoptosis of H22 cells (GLP-4 combined with cisplatin); type: cell-based; set-up: unit not given here; conditions: 48 h, GLP-4 2 mg/mL, cisplatin 5 μg/mL
Protocol: The culture medium was discarded, cells were washed with PBS and digested with 0.125% trypsin. After digestion, the reaction was stopped with medium, and cells were transferred to EP tubes for counting using a cell counter. […] 24 h later, once cells adhered, drugs were added. 48 h after drug administration, cells were digested with trypsin, washed with PBS, and recounted. The corresponding volume of staining solution was added based on cell count, then incubated for 30 min in an incubator. After incubation, cells were chilled to stop staining and maintain viability, followed by imaging using a confocal microscope.
Based on preliminary study results, the dosing concentration for Ganoderma lucidum polysaccharide GLP-4 was set at 2 mg/mL, and for cisplatin (DDP) at 5 μg/mL.

[5] = D4, cisplatin 4, Kanglaite 1404, GLP-4 low-dose 130 mg/kg
[6] = D7, cisplatin 4, Kanglaite 1404, GLP-4 low-dose 130 mg/kg
[7] = D10, cisplatin 4, Kanglaite 1404, GLP-4 low-dose 130 mg/kg
[8] = D13, cisplatin 4, Kanglaite 1404, GLP-4 low-dose 130 mg/kg
[9] = D16, cisplatin 4, Kanglaite 1404, GLP-4 low-dose 130 mg/kg
[10] = D19, cisplatin 4, Kanglaite 1404, GLP-4 low-dose 130 mg/kg
[11] = D22, cisplatin 4, Kanglaite 1404, GLP-4 low-dose 130 mg/kg
[12] = D25, cisplatin 4, Kanglaite 1404, GLP-4 low-dose 130 mg/kg

**Q.** What does the source list for `N.N.[Cl][Pt][Cl]` [Cisplatin, cisplatin]?
**A.** Tumor volume (LLC tumors [1]; D1, cisplatin 4, Kanglaite 1404, GLP-4 low-dose 130 mg/kg): 94.99 ± 11.16; Relative tumor growth rate (T/C) (LLC tumors [1]; [5]): 81.4%; Relative tumor volume (LLC tumors [1]; [5]): 1.84; Tumor volume (LLC tumors [1]; [5]): 150.58 ± 34.35; Relative tumor growth rate (T/C) (LLC tumors [1]; [6]): 45.5%; Relative tumor volume (LLC tumors [1]; [6]): 0.10; Relative tumor growth rate (T/C) (LLC tumors [1]; [7]): 27.3%; Relative tumor volume (LLC tumors [1]; [7]): 0.09; Relative tumor growth rate (T/C) (LLC tumors [1]; [8]): 70.2%; Relative tumor volume (LLC tumors [1]; [8]): 0.40; Tumor volume (LLC tumors [1]; [8]): 27.36 ± 24.4; Relative tumor growth rate (T/C) (LLC tumors [1]; [9]): 28.2%; Relative tumor volume (LLC tumors [1]; [9]): 0.51; Relative tumor growth rate (T/C) (LLC tumors [1]; [10]): 36.9%; Relative tumor volume (LLC tumors [1]; [10]): 0.97; Relative tumor growth rate (T/C) (LLC tumors [1]; [11]): 30.9%; Relative tumor volume (LLC tumors [1]; [11]): 10.62; Relative tumor growth rate (T/C) (LLC tumors [1]; [12]): 23.6%; Relative tumor volume (LLC tumors [1]; [12]): 12.10; Tumor coefficient (LLC tumors [1]; after last dose, cisplatin 4, Kanglaite 1404, GLP-4 low-dose 130 mg/kg): 7.528 ± 2.567 ^ %; Tumor growth inhibition rate (LLC tumors [1]; tumor weight vs model control, cisplatin 4, Kanglaite 1404, GLP-4 low-dose 130 mg/kg): 61.6%; CD3+/CD4+ [2]: 0.093 ± 0.025; CD3+/CD8+ [2]: 1.571 ± 0.406; Tumor histopathology (LLC tumors [3]): large areas of necrosis and hemorrhage were visible at the tumor center, with abundant tumor cells; Number of deaths ([4]; 8 per group, cisplatin 3, GLP-4 low-dose 50 mg/kg): 0; Survival time ([4]; 27 days dosing, cisplatin 3, GLP-4 low-dose 50 mg/kg): 27 ± 0 days; Weight ([4]; D0, cisplatin 3, GLP-4 low-dose 50 mg/kg): 22.8 ± 1^+ g; Weight ([4]; D9, cisplatin 3, GLP-4 low-dose 50 mg/kg): 22.2 ± 0.7^+ g; Weight ([4]; D12, cisplatin 3, GLP-4 low-dose 50 mg/kg): 21.9 ± 0.5^+ g; Weight ([4]; D15, cisplatin 3, GLP-4 low-dose 50 mg/kg): 21.3 ± 1*^+ g; Mortality rate ([4]; cisplatin 3, GLP-4 low-dose 50 mg/kg): 0%; Apoptosis rate, Mean ± SD (H22 cells): 10.9 ± 1.6; Necrosis rate, Mean ± SD (H22 cells): 33.7 ± 8.2; Total mortality rate, Mean ± SD (H22 cells): 44.7 ± 9.5; Apoptosis rate (H22 cells; single value 1): 11.3; Necrosis rate (H22 cells; single value 1): 27.3; Total mortality rate (H22 cells; single value 1): 38.7; Apoptosis rate (H22 cells; single value 2): 8.8; Necrosis rate (H22 cells; single value 2): 28.6; Total mortality rate (H22 cells; single value 2): 37.3; Apoptosis rate (H22 cells; single value 3): 12.9; Necrosis rate (H22 cells; single value 3): 45.4; Total mortality rate (H22 cells; single value 3): 58.2
